Assay results from patent US20260224555A1, “NEW PHENYLQUINOLONE COMPOUND HAVING ANTIBACTERIAL AND ANTI-CANCER FUNCTIONS AND PREPARATION THEREOF” (AlphaMol Science Ltd (Shanghai), priority 2022, published 2026).

How the values were obtained:
Assay in all cases: In vitro anticancer activity test (MTT cell proliferation)
Format in all cases: cell-based
[1] = system: human epidermal carcinoma cell A431; settings: A-431
Protocol: (§1) The anticancer activity of the compounds was tested using an in vitro cancer cell tests. The specific test method is as follows:
(§2) 1. Cell recovery and culture method: the cryovial was taken out from the liquid nitrogen container firstly, soaked directly in 37° C. warm water, and shaked from time to time to let it thaw as soon as possible. Then, the cryovial was transferred to a clean bench, and the lid was open. The cell suspension was taken into a centrifuge tube using a rubber-tipped dropper and more than 10 times the culture medium was added, mixed well, and centrifuged at 50 g for 5 minutes. Then, the supernatant was discarded, complete culture medium containing 10% fetal bovine serum was added to resuspend the cells, the cells was counted, the cell density was adjusted, and then inoculated into a culture bottle. The culture bottle was placed in a cell culture incubator at 5% CO2 and 37° C. The complete culture medium was replaced once the next day and the culture was continued.
(§3) 2. Cell passaging method: adherent cells in the logarithmic growth phase were placed in a clean bench, the original culture medium was discarded, and washed three times with 1×PBS. An appropriate amount of 0.25% trypsin digestion solution was added to moisten the cells, and then the trypsin solution was aspirated. The cells were placed in a cell culture incubator at 5% CO2 and 37° C. for digestion for a suitable time, and observed under a microscope. When 90% of the cells become round, the cells were moved immediately to the clean bench and complete culture medium was added to terminate digestion. Then, the cells were dislodged by pipetting up and down with a rubber-tipped dropper to single cells. The cells were counted, and the cell density was adjusted. The cells were inoculated into a suitable culture bottle or dish, added enough complete culture medium, and placed in a cell culture incubator at 5% CO2 and 37° C. for static culture.
(§4) For suspension cells in the logarithmic phase, the original culture medium was directly centrifuged at 50 g for 5 minutes, the supernatant was discarded, and the cells were washed once with PBS and centrifuged. After discarding the supernatant, the complete culture medium was added and the cells were dispersed using a rubber-tipped dropper. The cells are counted, and the cell density was adjusted. The cells were inoculated into appropriate culture bottles or culture dishes, and sufficient complete culture medium was added, and the cells were cultured in a cell culture incubator at 5% CO2 and 37° C.

[2] = system: human breast ductal carcinoma cell T-47D; settings: T47D
Protocol: as §1, §2, §3, §4

[3] = system: human bladder transitional cell carcinoma cell T24; settings: T-24
Protocol: as §1, §2, §3, §4

[4] = system: human acute T-lymphoblastic leukemia cell Jurkat
Protocol: as §1, §2, §3, §4

[5] = system: human ovarian adenocarcinoma cell SK-OV-3
Protocol: as §1, §2, §3, §4

[6] = system: human breast cancer cell MCF-7; settings: MCF7
Protocol: as §1, §2, §3, §4

Hela = settings: Homo sapiens, average proliferation inhibition rate at the dosage of 40 μM, read-out: Hela Average inhibition rate %
Protocol: as §1, §2, §3, §4
3. Cell proliferation assay: cells in good state in logarithmic phase were taken and appropriate amount of the cells was inoculated into 96-well plates according to the cell passage treatment method, with each well containing 180 μL complete medium. After the cells growth was recovered and the number of cells in each well is 5000±500, a drug was added for treatment.
After drug treatment during the experimental time, MTT solution with a final concentration of 0.5 mg/mL was added to each well, and placed in a cell culture incubator at 5% CO2 and 37° C. to allow a fully reaction of MTT with cells. After 4 hours, the solution in the 96-well plate was discarded, 100 µL of DMSO was added, and shaked to dissolve the formazan precipitated at the bottom of the plate, and the absorbance value of samples was detected at a wavelength of 570 nm using a microplate reader. Calculation method of cell viability rate:
Table 4 lists some compounds that have inhibitory effects against both of bacteria and cancer cells. In the table, the inhibitory effects against cancer cells are shown: the average proliferation inhibition rate (%) against cancer cells at the dosage of 40 μM.

O=C(CCl)Nc1ncc(-c2cc3c(cc2F)c(=O)c(C(=O)O)cn3C2CC2)cc1F [Example 135]
≥ 50%: inhibition at 40 µM (Hela)
1 to 10 µM: IC50 [1] | IC50 [2] | IC50 [3] | IC50 [4] | IC50 [5] | IC50 [6]
